{"source": "BindingDB's records for doi:10.1021/jm0702579", "about": "(National Cancer Institute-Frederick, 2007)", "assay": "Ratio of Ki for mouse wild type C1b domain of PKCdelta to Ki for mouse PKCdelta C1b Q27E mutant"}
{"compound": "CCCC(=O)O[C@@H]1[C@@H](C)[C@@]2(O)[C@@H](C=C(CO)C[C@]3(O)C(=O)C(C)=C[C@@H]23)[C@@H]2C(C)(C)[C@]12OC(=O)CCC", "note": "[(1aR,1bS,4aR,7aS,7bS,8R,9R,9aS)-4a,7b-dihydroxy-3-(hydroxymethyl)-1,1,6,8-tetramethyl-5-oxo-1,1a,1b,4,4a,5,7a,7b,8,9-decahydro-9aH-cyclopropa[3,4]benzo[1,2-e]azulene-9,9a-diyl dibutanoate]", "values": [{"measurement": "Ki", "value": 19, "unit": "nM"}]}
